Assays:
Type in all cases: in vivo
[1] = test system: redroot pigweed (Amaranthus retroflexus, AMARE); experiment: Pre-emerge test, greenhouse herbicide activity screening; details: pre-emerge, rated 14 days after application, 0 = no damage, 100 = complete death
Summary of the method: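 Compounds in acetone were track-sprayed at 187 l/ha, 15–1000 g ai/ha, onto sandy loam pots. Pre-emerge seeds were sown one day before spraying, with surface watering afterwards. Post-emerge plants were at the 2–3 leaf stage and sprayed with 0.25% v/v non-ionic surfactant. Injury was rated 0–100 at 14 days.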

[2] = test system: field corn (Zea mays L., var. Dekalb 535, CORN); experiment: Pre-emerge test, crop safety; details: pre-emerge, rated 14 days after application, 0 = no damage, 100 = complete death
Summary of the method: (§1)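 Applied at 15–1000 g ai/ha from acetone in 187 l/ha spray volume. Post-emergence applications included 0.25% v/v non-ionic surfactant and reached plants sown 8–21 days before. Pre-emergence applications were incorporated by surface watering. Efficacy or crop damage was rated on a 0–100 scale after 14 days.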

[3] = test system: upland rice (Oryza sp., var. Tebonnet, RICE); experiment: Pre-emerge test, crop safety; details: pre-emerge, rated 14 days after application, 0 = no damage, 100 = complete death
Summary of the method: as §1

[4] = test system: lambsquarters (Chenopodium album, CHEAL); experiment: Post-emerge test, greenhouse herbicide activity screening; details: phytotoxicity rating 0-100 (0 no damage, 100 complete death), 14 days after application
Summary of the method: (§2)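 Rating: 0–100 visual injury, 14 DAA. Application: acetone, 187 l/ha, 15–1000 g ai/ha, flat-fan track sprayer with nozzle 40–45 cm above soil or canopy. Post-emerge runs used 0.25% v/v surfactant on 2–3 leaf plants.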

[5] = test system: redroot pigweed (Amaranthus retroflexus, AMARE); experiment: as above; details: phytotoxicity rating 0-100 (0 no damage, 100 complete death), 14 days after application
Summary of the method: as §2

[6] = test system: green foxtail (Setaria viridis, SETVI); experiment: as above; details: phytotoxicity rating 0-100 (0 no damage, 100 complete death), 14 days after application
Summary of the method: as §2

[7] = test system: velvetleaf (Abutilon theophrasti, ABUTH); experiment: as above; details: phytotoxicity rating 0-100 (0 no damage, 100 complete death), 14 days after application
Summary of the method: as §2

[8] = test system: johnsongrass (Sorghum halepense, SORHA); experiment: as above; details: phytotoxicity rating 0-100 (0 no damage, 100 complete death), 14 days after application
Summary of the method: as §2

[9] = test system: common ragweed (Ambrosia artemisizfolia L., AMBEL); experiment: as above; details: phytotoxicity rating 0-100 (0 no damage, 100 complete death), 14 days after application
Summary of the method: as §2

[10] = test system: sicklepod (Cassia obtusifolia, CASOB); experiment: as above; details: phytotoxicity rating 0-100 (0 no damage, 100 complete death), 14 days after application
Summary of the method: as §2

[11] = test system: barnyardgrass (Echinochloa crus-galli, ECHCG); experiment: as above; details: phytotoxicity rating 0-100 (0 no damage, 100 complete death), 14 days after application
Summary of the method: as §2

[12] = test system: large crabgrass (Digitaria sanguinalis, DIGSA); experiment: as above; details: phytotoxicity rating 0-100 (0 no damage, 100 complete death), 14 days after application
Summary of the method: as §2

[13] = test system: ivyleaf morningglory (Ipomoea hederacea, IPOHE); experiment: as above; details: phytotoxicity rating 0-100 (0 no damage, 100 complete death), 14 days after application
Summary of the method: as §2

[14] = test system: lambsquarters (Chenopodium album, CHEAL); experiment: Pre-emerge test, greenhouse herbicide activity screening; details: pre-emerge, rated 14 days after application, 0 = no damage, 100 = complete death
Summary of the method: as §1

[15] = test system: green foxtail (Setaria viridis, SETVI); experiment: as above; details: pre-emerge, rated 14 days after application, 0 = no damage, 100 = complete death
Summary of the method: as §1

[16] = test system: velvetleaf (Abutilon theophrasti, ABUTH); experiment: as above; details: pre-emerge, rated 14 days after application, 0 = no damage, 100 = complete death
Summary of the method: as §1

[17] = test system: johnsongrass (Sorghum halepense, SORHA); experiment: as above; details: pre-emerge, rated 14 days after application, 0 = no damage, 100 = complete death
Summary of the method: as §1

[18] = test system: common ragweed (Ambrosia artemisizfolia L., AMBEL); experiment: as above; details: pre-emerge, rated 14 days after application, 0 = no damage, 100 = complete death
Summary of the method: as §1

[19] = test system: sicklepod (Cassia obtusifolia, CASOB); experiment: as above; details: pre-emerge, rated 14 days after application, 0 = no damage, 100 = complete death
Summary of the method: as §1

[20] = test system: barnyardgrass (Echinochloa crus-galli, ECHCG); experiment: as above; details: pre-emerge, rated 14 days after application, 0 = no damage, 100 = complete death
Summary of the method: as §1

[21] = test system: large crabgrass (Digitaria sanguinalis, DIGSA); experiment: as above; details: pre-emerge, rated 14 days after application, 0 = no damage, 100 = complete death
Summary of the method: as §1

[22] = test system: ivyleaf morningglory (Ipomoea hederacea, IPOHE); experiment: as above; details: pre-emerge, rated 14 days after application, 0 = no damage, 100 = complete death
Summary of the method: as §1

[23] = test system: field corn (Zea mays L., var. Dekalb 535, CORN); experiment: Post-emerge test, crop safety; details: phytotoxicity rating 0-100 (0 no damage, 100 complete death), 14 days after application
Summary of the method: as §1

[24] = test system: upland rice (Oryza sp., var. Tebonnet, RICE); experiment: Post-emerge test, crop safety; details: phytotoxicity rating 0-100 (0 no damage, 100 complete death), 14 days after application
Summary of the method: as §1

COc1c(Cl)cc(F)c(-n2c(=O)cc(C(F)(F)F)n(C)c2=O)c1NC(C)=O [2-1]
70: Pre-emerge Herbicidal Activity SORHA (phytotoxicity rating, scale 0-100) ([17]; 250 g ai/ha) | Pre-emerge Herbicidal Activity ECHCG (phytotoxicity rating, scale 0-100) ([20]; 250 g ai/ha) | Post-emerge Herbicidal Activity RICE (crop damage) ([24]; 250 g ai/ha)
90: Pre-emerge crop damage RICE (phytotoxicity rating, scale 0-100) ([3]; 250 g ai/ha) | Pre-emerge Herbicidal Activity CHEAL (phytotoxicity rating, scale 0-100) ([14]; 63 g ai/ha)
80: Pre-emerge crop damage CORN (phytotoxicity rating, scale 0-100) ([2]; 250 g ai/ha) | Pre-emerge crop damage RICE (phytotoxicity rating, scale 0-100) ([3]; 63 g ai/ha) | Pre-emerge Herbicidal Activity SETVI (phytotoxicity rating, scale 0-100) ([15]; 63 g ai/ha) | Pre-emerge Herbicidal Activity CASOB (phytotoxicity rating, scale 0-100) ([19]; 63 g ai/ha)
10: Post-emerge Herbicidal Activity ECHCG ([11]; 250 g ai/ha) | Pre-emerge Herbicidal Activity ECHCG (phytotoxicity rating, scale 0-100) ([20]; 63 g ai/ha) | Post-emerge Herbicidal Activity CORN (crop damage) ([23]; 63 g ai/ha)
30: Pre-emerge crop damage CORN (phytotoxicity rating, scale 0-100) ([2]; 63 g ai/ha) | Post-emerge Herbicidal Activity SETVI ([6]; 250 g ai/ha) | Post-emerge Herbicidal Activity AMBEL ([9]; 63 g ai/ha) | Pre-emerge Herbicidal Activity SORHA (phytotoxicity rating, scale 0-100) ([17]; 63 g ai/ha) | Post-emerge Herbicidal Activity RICE (crop damage) ([24]; 63 g ai/ha)
0: Post-emerge Herbicidal Activity SETVI ([6]; 63 g ai/ha) | Post-emerge Herbicidal Activity SORHA ([8]; 63 g ai/ha) | Post-emerge Herbicidal Activity SORHA ([8]; 250 g ai/ha) | Post-emerge Herbicidal Activity ECHCG ([11]; 63 g ai/ha) | Post-emerge Herbicidal Activity DIGSA ([12]; 63 g ai/ha) | Post-emerge Herbicidal Activity DIGSA ([12]; 250 g ai/ha)
85: Post-emerge Herbicidal Activity AMBEL ([9]; 250 g ai/ha)
100: Pre-emerge Herbicidal Activity AMARE (phytotoxicity rating, scale 0-100) ([1]; 250 g ai/ha) | Post-emerge Herbicidal Activity CHEAL ([4]; 250 g ai/ha) | Post-emerge Herbicidal Activity AMARE ([5]; 250 g ai/ha) | Post-emerge Herbicidal Activity ABUTH ([7]; 63 g ai/ha) | Post-emerge Herbicidal Activity ABUTH ([7]; 250 g ai/ha) | Post-emerge Herbicidal Activity CASOB ([10]; 250 g ai/ha) | Post-emerge Herbicidal Activity IPOHE ([13]; 63 g ai/ha) | Post-emerge Herbicidal Activity IPOHE ([13]; 250 g ai/ha) | Pre-emerge Herbicidal Activity CHEAL (phytotoxicity rating, scale 0-100) ([14]; 250 g ai/ha) | Pre-emerge Herbicidal Activity ABUTH (phytotoxicity rating, scale 0-100) ([16]; 63 g ai/ha) | Pre-emerge Herbicidal Activity ABUTH (phytotoxicity rating, scale 0-100) ([16]; 250 g ai/ha) | Pre-emerge Herbicidal Activity AMBEL (phytotoxicity rating, scale 0-100) ([18]; 250 g ai/ha) | Pre-emerge Herbicidal Activity CASOB (phytotoxicity rating, scale 0-100) ([19]; 250 g ai/ha) | Pre-emerge Herbicidal Activity DIGSA (phytotoxicity rating, scale 0-100) ([21]; 250 g ai/ha) | Pre-emerge Herbicidal Activity IPOHE (phytotoxicity rating, scale 0-100) ([22]; 250 g ai/ha)
50: Post-emerge Herbicidal Activity AMARE ([5]; 63 g ai/ha) | Post-emerge Herbicidal Activity CASOB ([10]; 63 g ai/ha) | Pre-emerge Herbicidal Activity AMBEL (phytotoxicity rating, scale 0-100) ([18]; 63 g ai/ha)
60: Pre-emerge Herbicidal Activity AMARE (phytotoxicity rating, scale 0-100) ([1]; 63 g ai/ha)
20: Pre-emerge Herbicidal Activity DIGSA (phytotoxicity rating, scale 0-100) ([21]; 63 g ai/ha)
95: Post-emerge Herbicidal Activity CHEAL ([4]; 63 g ai/ha) | Pre-emerge Herbicidal Activity SETVI (phytotoxicity rating, scale 0-100) ([15]; 250 g ai/ha) | Pre-emerge Herbicidal Activity IPOHE (phytotoxicity rating, scale 0-100) ([22]; 63 g ai/ha)
15: Post-emerge Herbicidal Activity CORN (crop damage) ([23]; 250 g ai/ha)

Reference: patent US6355799B1, “Substituted benzene compounds, process for their preparation, and herbicidal and defoliant compositions containing them” (ISK Americas Incorporated, priority 1997, dated 2002)
